# Tests used:
# HaCaT = experiment: Induction of apoptosis in human HaCaT cells assessed as late apoptotic cells at IC50 incubated for 72 hrs by Annexin V-FITC/PI staining based flow cytometric analysis relative to control; type: functional
# HMEC-1 = experiment: Induction of apoptosis in human HMEC-1 cells assessed as increase in caspase-3/7 activity at IC50 incubated for 24 hrs by Glo assay relative to control; type: functional
structure (smiles),measurement,setting,value
CC12C(=O)C(C)(C(c3ccccc3)=C1c1ccccc1)C1C(=O)N(CCCCN3CCN(c4ccccc4F)CC3)C(=O)C12 (configuration not stated),Activity,HaCaT,12.3%
same,Activity,HMEC-1,13%

# Reference: ChEMBL document CHEMBL5329202, “New aryl-/heteroarylpiperazine derivatives of 1,7-dimethyl-8,9-diphenyl-4-azatricyclo[5.2.1.02,6]dec-8-ene-3,5,10-trione: Synthesis and preliminary studies of biological activities” (Bioorg Med Chem, 2023)
